System: MC-38 tumors
Assay: Anti-tumor efficacy of Compound 1 in the subcutaneous MC-38 murine colorectal cancer model: dose response (Example 1)
Type: in vivo, Mus musculus
Settings: for ILS (%) / MST: endpoint tumor volume 2000 mm^3; for Tumor volume (mm^3), Mean ± SEM: n = 8; for Tumor Size (mm^3) at day 14 / RTV at day 14 / T/C (%) / TGI (%): day 14
Protocol: Female C57BL/6 mice were inoculated subcutaneously at right flank with MC-38 cells for tumor development. Four days after tumor inoculation, 64 mice with tumor size ranging from 50-92 mm^3 (average tumor size 63 mm^3) were selected and assigned into 8 groups using stratified randomization with 8 mice per group based upon their tumor volumes. The treatments were started from the day of randomization (defined as D0), Group 1 was treated with Vehicle (Tween 80:Ethanol:Saline—5:5:90 v/v/v), S.C. QD, Group 2 was treated with Compound 1 (0.1 mg/kg), S.C. QD, Group 3 was treated with Compound 1 (0.3 mg/kg), S.C. QD, Group 4 was treated with Compound 1 (0.5 mg/kg), S.C. QD, Group 5 was treated with Compound 1 (1 mg/kg), S.C. QD, Group 6 was treated with Compound 1 (3 mg/kg), S.C. QD*5 days followed by Compound 1 (1 mg/kg), S.C. QD*9 days (2 cycles), Group 7 was treated with Compound 1 (1 mg/kg), S.C. QD*5 days followed by Compound 1 (0.3 mg/kg), S.C. QD*9 days (2 cycles) and Group 8 was treated with Compound 1 (0.15 mg/kg), S.C. BID. The tumor sizes were measured three times per week during the treatment. The entire study was terminated on D74 after start of the treatment.
Animal Species: Mus musculus; Strain: C57BL/6; Age: 6-8 weeks; Sex: female; Body weight (at treatment start): 17-21 g.
The MC-38 tumor cells were maintained in vitro as a monolayer culture in DMEM medium supplemented with 10% heat inactivated fetal bovine serum and 100 μg/mL penicillin streptomycin at 37° C. in an atmosphere of 5% CO2 in air. The tumor cells were routinely subcultured twice weekly by trypsin-EDTA treatment. The cells growing to a confluency around 70%-80% were harvested and counted for tumor inoculation. The cultured MC-38 were harvested, re-suspended in base medium at a density of 1×10^7 cells/mL with viability>90%. Each mouse was inoculated subcutaneously at the right flank with 1×10^6 in 0.1 ml base medium for tumor development.
The treatments were started on day 4 after tumor inoculation when the tumor size reached 50-92 mm^3 (average tumor size 63 mm^3). Each group consisted of 8 tumor bearing mice. The testing article was administrated at a dosing volume of […] to the mice according to the predetermined regimen shown in Table 1-1. Testing article formulations were prepared according to standard procedures. Details regarding tumor measurements and endpoints, and statistical analysis are provided in EXAMPLE 3.
Tumor sizes were measured three times a week in two dimensions using a caliper, and the volume expressed in mm^3 using the formula: V=0.5 a×b^2 where a and b are the long and short diameters of the tumor, respectively. The tumor sizes were then used for the calculations of both tumor growth inhibition (TGI) and T/C values.
TGI is calculated for each group using the formula: […]
TVTreatment_DayN is the average tumor volume of a treatment group on a given day, TVTreatment_Day0 is the average tumor volume of the treatment group on the first day of treatment, TVVehicle_DayN is the average tumor volume of the vehicle control group on a given day, and TVVehicle_Day0 is the average tumor volume of the vehicle group on the first day of treatment.
The T/C value (in percent) is an indication of antitumor effectiveness, T/C (%)=RTVTreatment/RTVControl×100% (RTVTreatment: the mean RTV of the treatment group; RTVControl: the mean RTV of the vehicle treated group). RTV (relative tumor volume)=TVDayN/TVDay0. TVDayN and TVDay0 is the tumor volume on day N and Day 0 respectively. T/C (%)≤42% is considered as significant antitumor activity and <10% is considered as highly significant antitumor activity by the National Cancer Institute criteria.
Animal survival curve: When an individual animal reached to the termination endpoint (TV>2000 mm^3), the mouse was euthanized. The time from treatment initiation to the termination was deemed as its survival time. Survival curve was plotted by Kaplan-Meier method. Median survival time (MST) was calculated for each group. […]

[1] = 1 & 0.3 mg/kg (1 mg/kg QDx5 then 0.3 mg/kg QDx9 S.C.)
[2] = 3 & 1 mg/kg (3 mg/kg QDx5 then 1 mg/kg QDx9 S.C.)
[3] = Treatment (0.1) mg/kg, last line of the table

Compound: CC(=O)N[C@@H](Cc1c[nH]c2ccccc12)C(=O)N[C@@H](CCC(=O)C=[N+]=[N-])C(=O)OC(C)C [Compound 1, Isopropyl (S)-2-((S)-2-acetamido-3-(1H-indol-3-yl)propanamido)-6-diazo-5-oxohexanoate]
- Tumor Size (mm^3) at day 14 (0.5 mg/kg S.C. QD): 96.6 ± 16.6 mm^3
- ILS (%) (0.5 mg/kg): 131%
- MST (0.5 mg/kg): 37 days
- Tumor volume (mm^3), Mean ± SEM (1 mg/kg QDx5 then 0.3 mg/kg QDx9 S.C., 2 cycles, Day 0): 63 ± 4 mm^3
- Tumor volume (mm^3), Mean ± SEM (1 mg/kg QDx5 then 0.3 mg/kg QDx9 S.C., 2 cycles, Day 2): 73 ± 5 mm^3
- Tumor volume (mm^3), Mean ± SEM (1 mg/kg QDx5 then 0.3 mg/kg QDx9 S.C., 2 cycles, Day 4): 85 ± 7 mm^3
- Tumor volume (mm^3), Mean ± SEM (1 mg/kg QDx5 then 0.3 mg/kg QDx9 S.C., 2 cycles, Day 7): 97 ± 10 mm^3
- Tumor volume (mm^3), Mean ± SEM (1 mg/kg QDx5 then 0.3 mg/kg QDx9 S.C., 2 cycles, Day 9): 101 ± 9 mm^3
- Tumor volume (mm^3), Mean ± SEM (1 mg/kg QDx5 then 0.3 mg/kg QDx9 S.C., 2 cycles, Day 11): 116 ± 19 mm^3
- Tumor volume (mm^3), Mean ± SEM (1 mg/kg QDx5 then 0.3 mg/kg QDx9 S.C., 2 cycles, Day 14): 119 ± 22 mm^3
- Tumor volume (mm^3), Mean ± SEM (1 mg/kg S.C. QD, Day 0): 62 ± 4 mm^3
- Tumor volume (mm^3), Mean ± SEM (1 mg/kg S.C. QD, Day 2): 74 ± 5 mm^3
- Tumor volume (mm^3), Mean ± SEM (1 mg/kg S.C. QD, Day 4): 85 ± 5 mm^3
- Tumor volume (mm^3), Mean ± SEM (1 mg/kg S.C. QD, Day 7): 94 ± 5 mm^3
- Tumor volume (mm^3), Mean ± SEM (1 mg/kg S.C. QD, Day 9): 100 ± 7 mm^3
- Tumor volume (mm^3), Mean ± SEM (1 mg/kg S.C. QD, Day 11): 80 ± 8 mm^3
- Tumor volume (mm^3), Mean ± SEM (1 mg/kg S.C. QD, Day 14): 68 ± 12 mm^3
- RTV at day 14 (1 mg/kg S.C. QD): 1.13 ± 0.67
- T/C (%) (1 mg/kg S.C. QD): 3.71%
- TGI (%) (1 mg/kg S.C. QD): 99.69%
- Tumor Size (mm^3) at day 14 (1 mg/kg S.C. QD): 68.23 ± 12.12 mm^3
- ILS (%) (1 mg/kg, then 0.3 mg/kg): 131%
- MST (1 mg/kg, then 0.3 mg/kg): 37 days
- ILS (%) (1 mg/kg): 144%
- MST (1 mg/kg): 39 days
- Tumor volume (mm^3), Mean ± SEM (3 mg/kg QDx5 then 1 mg/kg QDx9 S.C., 2 cycles, Day 0): 63 ± 5 mm^3
- Tumor volume (mm^3), Mean ± SEM (3 mg/kg QDx5 then 1 mg/kg QDx9 S.C., 2 cycles, Day 2): 70 ± 3 mm^3
- Tumor volume (mm^3), Mean ± SEM (3 mg/kg QDx5 then 1 mg/kg QDx9 S.C., 2 cycles, Day 4): 83 ± 7 mm^3
- Tumor volume (mm^3), Mean ± SEM (3 mg/kg QDx5 then 1 mg/kg QDx9 S.C., 2 cycles, Day 7): 87 ± 8 mm^3
- Tumor volume (mm^3), Mean ± SEM (3 mg/kg QDx5 then 1 mg/kg QDx9 S.C., 2 cycles, Day 9): 90 ± 6 mm^3
- Tumor volume (mm^3), Mean ± SEM (3 mg/kg QDx5 then 1 mg/kg QDx9 S.C., 2 cycles, Day 11): 79 ± 10 mm^3
- Tumor volume (mm^3), Mean ± SEM (3 mg/kg QDx5 then 1 mg/kg QDx9 S.C., 2 cycles, Day 14): 43 ± 4 mm^3
- ILS (%) (3 mg/kg, then 1 mg/kg): 131%
- MST (3 mg/kg, then 1 mg/kg): 37 days
- RTV at day 14 [1]: 1.85 ± 0.82
- T/C (%) [1]: 6.05%
- TGI (%) [1]: 96.95%
- Tumor Size (mm^3) at day 14 [1]: 118.69 ± 21.92 mm^3
- RTV at day 14 [2]: 0.69 ± 0.16
- T/C (%) [2]: 2.27%
- TGI (%) [2]: 101.09%
- Tumor Size (mm^3) at day 14 [2]: 42.91 ± 3.89 mm^3
- RTV at day 14 [3]: 5.99 ± 2.92
- T/C (%) [3]: 19.62%
- TGI (%) [3]: 83.19%
- Tumor Size (mm^3) at day 14 [3]: 369.41 ± 56.37 mm^3

From patent publication US20220117938A1, “COMBINATON THERAPY WITH A DON PRODRUG AND AN IMMUNE CHECKPOINT INHIBITOR” (DRACEN PHARMACEUTICALS, INC., priority 2019, published 2022)
